The term EC50 denotes the concentration that produces a half-maximal response. A lower EC50 goes with a more potent agent.

The target of one experiment is T1, human GPR40 (Homo sapiens, UniProt O14842).
T1 construct: expressed in transfected cells; host or cells: HEK cells stably expressing the aequorin reporter
T1 sequence (O14842 whole entry): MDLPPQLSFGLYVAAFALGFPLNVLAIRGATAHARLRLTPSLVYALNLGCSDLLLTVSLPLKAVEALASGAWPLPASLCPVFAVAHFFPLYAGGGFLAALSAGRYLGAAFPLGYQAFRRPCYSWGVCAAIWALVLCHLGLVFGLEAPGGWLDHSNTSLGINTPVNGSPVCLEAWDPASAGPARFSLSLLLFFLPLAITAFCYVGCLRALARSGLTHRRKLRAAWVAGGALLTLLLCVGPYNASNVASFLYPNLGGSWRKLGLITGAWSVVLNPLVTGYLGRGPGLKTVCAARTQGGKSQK
Kind of experiment: Inositol Phosphate Turnover (IP1) Assay 1. The settings on record: HEK cells stably expressing human GPR40; compound transferred via pocket tip; 60 minutes at 37 degrees. It counts as cell-based. The protocol: (§1) Human and mouse GPR40 stable cell-lines were generated in CHO cells stably expressing NFAT BLA (Beta-lactamase). A human GPR40 stable cell-line was generated in HEK cells stably expressing the aequorin expressing reporter. The expression plasmids were transfected using lipofectamine (Life Technologies) following manufacturer's instructions. Stable cell-lines were generated following drug selection.
(§2) The assay is performed in 384-well format. HEK cells stably expressing human GPR40 are plated at 15,000 cells per well in growth medium (DMEM/10% fetal calf serum). Cell plates are then incubated 16 hours at 37 degrees in a 5% CO2 incubator.
Measurement of Inositol Phosphate Turnover (IP1) is performed using the CisBio IP-One kit (Part number 62IPAPEB). After the 16 hour incubation, the cells are washed with HEPES buffer and 10 ul of stimulation buffer (prepared as described in the kit) is added to each well. In a separate plate, compounds are diluted in DMSO (400-fold over the final concentration in the assay well) and 25 nl is transferred via pocket tip to the appropriate well in the assay cell plate. The plates are then incubated for 60 minutes at 37 degrees. 10 ul of detection buffer (also prepared as described in the IP-One kit) is added to each well and the plates are incubated for 60 minutes in the dark. The plates are then read in a Perkin Elmer EnVision or equivalent reader able to measure FRET. Fluorescent ratio of emission at 665 and 620 nm is then converted to IP1 concentration by back calculating from an IP1 standard curve prepared at the time of the assay.
As for `COc1cc(-c2ccc(C3COc4ccc([C@H](C5CC5)[C@H](C)C(=O)O)cc4C3)c(F)c2)ccn1` (stereo partly drawn) [Example 14], the EC50 was determined as 32 nM.

`COc1cc(-c2ccc(C3COc4ccc([C@H](C5CC5)[C@H](C)C(=O)O)cc4C3)cc2)ccn1` (single isomer, unassigned) [Example 16] returned an EC50 of 12 nM.

With `COc1ccc(F)c(-c2ccc([C@@H]3Cc4cc([C@H](C5CC5)[C@H](C)C(=O)O)ccc4C(=O)O3)cc2)c1` [Example 23, (2S,3R)-3-cyclopropyl-3-((S)-3-(2′-fluoro-5′-methoxy-[1,1′-biphenyl]-4-yl)-1-oxoisochroman-6-yl)-2-methylpropanoic acid], the EC50 was determined as 424 nM.

`Cc1cccc(C)c1-c1ccc(C2COc3ccc([C@H](C4CC4)[C@H](C)C(=O)O)cc3C2)cc1` (stereo partly drawn) [Example 13] yielded an EC50 of 592 nM.

`COc1ccc(F)c(-c2ccc(C3COc4ccc(C(CC(=O)O)C5CC5)cc4C3)cc2)c1` (stereo not drawn) [Example 1, 3-cyclopropyl-3-(3-(2′-fluoro-5′-methoxy-[1,1′-biphenyl]-4-yl)chroman-6-yl)propanoic acid] yielded a half-maximal effective concentration (EC50) of 155 nM.

The compound `COc1ccc(F)c(-c2ccc(C3COc4ccc([C@@H](C5CC5)[C@@H](C)C(=O)O)cc4C3)cc2)c1` (single isomer, unassigned) [Example 8] came in with an EC50 of 169 nM. This EC50 and that of the compound before are within 1.5-fold of each other.

In the case of `COc1ccc(F)c(-c2ccc(C3Cc4cc([C@H](C5CC5)[C@H](C)C(=O)O)ccc4S(=O)(=O)C3)cc2)c1` (stereo partly drawn) [Example 28, (2S,3R)-3-Cyclopropyl-3-(3-(2′-fluoro-5′-methoxy-[1,1′-biphenyl]-4-yl)-1,1-dioxidothiochroman-6-yl)-2-methylpropanoic acid], it took 69 nM to reach a half-maximal effect (EC50). This EC50 is about 2.4-fold lower than that of the compound before.

`COc1cc(-c2ccc(C3COc4ccc([C@H](C5CC5)[C@H](C)C(=O)O)cc4C3)cc2)c(F)cn1` (single isomer, unassigned) [Example 10] returned an EC50 of 13 nM.

The compound `COc1cc(-c2ccc(C3COc4ccc([C@H](C5CC5)[C@H](C)C(=O)O)cc4C3)cc2)c(F)cn1` (single isomer, unassigned) [Example 11] came in with an EC50 of 6.3 nM.

`COc1ccc(F)c(-c2ccc(C3COc4ccc([C@H](C5CC5)[C@H](C)C(=O)O)cc4C3)cc2)c1` (single isomer, unassigned) [Example 6] yielded an EC50 of 5.6 nM.

On to `C[C@H](C(=O)O)[C@H](c1ccc2c(c1)CC(c1ccc(-c3cccc(OC4CC4)c3)cc1)CO2)C1CC1` (stereo partly drawn) [Example 19, (2S,3R)-3-(3-(3′-cyclopropoxy-[1,1′-biphenyl]-4-yl)chroman-6-yl)-3-cyclopropyl-2-methylpropanoic acid], for which the midpoint of the response, the EC50, lay at 250 nM.

`COc1ccc(F)c(-c2ccc(C3Cc4cc([C@H](C5CC5)[C@H](C)C(=O)O)ccc4C(=O)O3)cc2)c1` (stereo in doubt) [Example 24, (2S,3R)-3-cyclopropyl-3-((S)-3-(2′-fluoro-5′-methoxy-[1,1′-biphenyl]-4-yl)-1-oxoisochroman-6-yl)-2-methylpropanoic acid] displayed a concentration for a half-maximal effect (EC50) of 166 nM.

In the case of `COc1ccc(F)c(-c2ccc(C3Cc4cc(C(CC(=O)O)C5CC5)ccc4CO3)cc2)c1` (mixture of isomers) [Example 20, 3-cyclopropyl-3-(3-(2′-fluoro-5′-methoxy-[1,1′-biphenyl]-4-yl)isochroman-6-yl)propanoic acid], the EC50 turned out to be 5380 nM.

`COc1ccc(F)c(-c2ccc(C3COc4ccc(C(CC(=O)O)C5CC5)cc4C3)cc2)c1` (single isomer, unassigned) [Example 3]: the EC50 came out at 330 nM.

For `COc1cc(-c2ccc(C3COc4ccc([C@H](C5CC5)[C@H](C)C(=O)O)cc4C3)cc2)ccn1` (single isomer, unassigned) [Example 15], the EC50 was 26 nM.

On to `COc1ccc(F)c(-c2ccc(C3COc4ccc(C(CC(=O)O)C5CC5)cc4C3)cc2)c1` (single isomer, unassigned) [Example 4], for which the response was half-maximal at 75 nM (EC50).

Compound `COc1ccc(F)c(-c2ccc(C3CSc4ccc([C@H](C5CC5)[C@H](C)C(=O)O)cc4C3)cc2)c1` (stereo partly drawn) [Example 27, (2S,3R)-3-cyclopropyl-3-(3-(2′-fluoro-5′-methoxy-[1,1′-biphenyl]-4-yl)thiochroman-6-yl)-2-methylpropanoic acid] displayed an EC50 of 6.9 nM.

Compound `COc1ccc(F)c(-c2ccc(C3COc4ccc(C(CC(=O)O)C5CC5)cc4C3)cc2)c1` (single isomer, unassigned) [Example 5] yielded a concentration giving a half-maximal response (EC50) of 106 nM.

As for `COc1ccc(F)c(-c2ccc(C3COc4ccc([C@H](C5CC5)[C@H](C)C(=O)O)cc4C3)cc2)c1` (single isomer, unassigned) [Example 7], a half-maximal effect (EC50) was put at 3 nM.

In turn, `COc1cc(-c2ccc(C3COc4ccc([C@H](C5CC5)[C@H](C)C(=O)O)cc4C3)cc2)ccn1` (stereo partly drawn) [Example 12] came in with an EC50 of 12 nM.

On to `C[C@H](C(=O)O)[C@H](c1ccc2c(c1)CC(C1CCN(Cc3cc(C(F)(F)F)ccc3C(F)(F)F)CC1)CO2)C1CC1` (stereo partly drawn) [Example 25, Sodium (2S,3R)-3-(3-(1-(2,5-bis(trifluoromethyl)benzyl)piperidin-4-yl)chroman-6-yl)-3-cyclopropyl-2-methylpropanoate], for which the response was half-maximal at 729 nM (EC50).

In turn, `COc1ccc(F)c(-c2ccc(C3CCc4ccc(C(C5CC5)C(C)C(=O)O)cc4C3)cc2)c1` (stereo not drawn) [Example 26, 3-cyclopropyl-3-(7-(2′-fluoro-5′-methoxy-[1,1′-biphenyl]-4-yl)-5,6,7,8-tetrahydronaphthalen-2-yl)-2-methylpropanoic acid] had a concentration for a half-maximal effect (EC50) of 24 nM. Against the preceding compound, the EC50 is about 30-fold lower.

Consider `COc1ccc(F)c(-c2ccc(C3COc4ccc([C@@H](C5CC5)[C@@H](C)C(=O)O)cc4C3)cc2)c1` (single isomer, unassigned) [Example 9], for which the EC50 amounted to 60 nM.

Another experiment deals with T1, human GPR40. Kind of experiment: Inositol Phosphate Turnover (IP1) Assay 2. The format is cell-based. As to conditions: HEK cells stably expressing human GPR40; compound acoustically transferred; 60 minutes at 37 degrees. The protocol:
as §1, §2
Measurement of Inositol Phosphate Turnover (IP1) is performed using the CisBio IP-One kit (Part number 62IPAPEB). After the 16 hour incubation, the cells are washed with HEPES buffer and 10 ul of stimulation buffer (prepared as described in the kit) is added to each well. In a separate plate, compounds are diluted in DMSO (400-fold over the final concentration in the assay well) and 25 nl is acoustically transferred to the appropriate well in the assay cell plate. The plates were then incubated for 60 minutes at 37 degrees. 10 ul of detection buffer (also prepared as described in the IP-One kit) is added to each well and the plates are incubated for 60 minutes in the dark. The plates are then read in a Perkin Elmer EnVision or equivalent reader able to measure FRET. Fluorescent ratio of emission at 665 and 620 nm is then converted to IP1 concentration by back calculating from an IP1 standard curve prepared at the time of the assay.
For the compound `COc1cc(-c2ccc(C3COc4ccc([C@H](C5CC5)[C@H](C)C(=O)O)cc4C3)c(F)c2)ccn1` (single isomer, unassigned) [Example 18], the EC50 turned out to be 8.1 nM.

As to `COc1ccc(F)c(-c2ccc([C@H]3Cc4cc([C@H](C5CC5)[C@H](C)C(=O)O)ccc4CO3)cc2)c1` [Example 22, (2S,3R)-3-cyclopropyl-3-((R)-3-(2′-fluoro-5′-methoxy-1,1′-biphenyl-4-yl)isochroman-6-yl)-2-methylpropanoic acid], the EC50 turned out to be 0.5 nM.

The compound `COc1cc(-c2ccc([C@@H]3Cc4cc([C@H](C5CC5)[C@H](C)C(=O)O)ccc4CO3)c(F)c2)ccn1` [Example 38A, (2S,3R)-3-cyclopropyl-3-((S)-3-(2-fluoro-4-(2-methoxypyridin-4-yl)phenyl)isochroman-6-yl)-2-methylpropanoic acid] returned an EC50 of 4.2 nM.

The compound `COc1cc(-c2ccc([C@H]3Cc4cc([C@H](C5CC5)[C@H](C)C(=O)O)ccc4CO3)c(F)c2)ccn1` [Example 38B, (2S,3R)-3-cyclopropyl-3-((R)-3-(2-fluoro-4-(2-methoxy-pyridin-4-yl)phenyl)isochroman-6-yl)-2-methylpropanoic acid] gave an EC50 of 24.5 nM. This EC50 is about 5.8-fold higher than that of the compound before.

On to `C[C@H](C(=O)O)[C@H](c1ccc2c(c1)CC(C1CCN(c3ncccc3C(F)(F)F)CC1)OC2)C1CC1` (stereo partly drawn) [Example 40, (2S,3R)-3-cyclopropyl-2-methyl-3-(3-(1-(3-(trifluoromethyl)pyridin-2-yl)piperidin-4-yl)isochroman-6-yl)propanoic acid], for which the EC50 was 54 nM.

`COc1cc(-c2ccc(C3CCc4ccc(C(C5CC5)C(C)C(=O)O)cc4C3)c(F)c2)ccn1` (single isomer, unassigned) [Example 35]: the EC50 was 257 nM.

Regarding `COc1cc(-c2ccc(C3=Cc4cc([C@@H](C5CC5)[C@H](C)C(=O)O)ccc4CC3)c(F)c2)ccn1` (single isomer, unassigned) [Example 29], the EC50 worked out at 3960 nM. Against the preceding compound, the EC50 is about 15-fold higher.

`COc1cc(-c2ccc(C3COc4ccc([C@H](C5CC5)[C@H](C)C(=O)O)cc4C3)c(F)c2)ccn1` (single isomer, unassigned) [Example 17] had an EC50 of 15 nM.

On to `COc1cc(-c2ccc(C3Cc4cc([C@H](C5CC5)[C@H](C)C(=O)O)ccc4CO3)cc2)c(F)cn1` (single isomer, unassigned) [Example 39A], for which the half-maximal effective concentration (EC50) worked out at 0.76 nM.

With `COc1cc(-c2ccc(C3CCc4ccc(C(C5CC5)C(C)C(=O)O)cc4C3)c(F)c2)ccn1` (single isomer, unassigned) [Example 34], a half-maximal effect (EC50) was put at 13 nM.
